Data: patent US12036212B2, “Enhancement of tumor response to chemotherapy by activation of the asmase/ceramide pathway through timed administration of a short-acting anti-angiogenic agent” (Memorial Sloan-Kettering Cancer Center, priority 2014, dated 2024)

Legend:
[1] = tested on: MCA/129 fibrosarcoma tumors; assay: IVIM MRI of vascular perfusion in MCA/129 fibrosarcoma tumors; format: in vivo, mouse; conditions: gemcitabine 240 mg/kg i.p.
Source text: IVIM DW-MRI was first described by Le Bihan et al. (MR imaging of intravoxel incoherent motions: application to diffusion and perfusion in neurologic disorders. Radiology 1986; 161: 401-407). The novelty of our approach lies in repeatedly acquiring IVIM data over time (e.g. “dynamic” IVIM) to monitor the acute effects of radiation (or chemotherapy), a strategy which has not been previously reported. No intravenous contrast administration is required, and IVIM parameters can be measured many times, allowing us to define kinetics of vascular dysfunction after radiation or chemotherapy. Other alternatives, such as DCE-MRI or ^15O-PET, would not serve our purpose as well: although they may be highly reflective of tissue vascularity they cannot be re-injected into a patient to serially monitor changes in vascularity over time. IVIM parameters including perfusion fraction (f), pseudo-diffusion coefficient (D*) and diffusion coefficient (D) were calculated for each lesion, using a biexponential signal decay model and incorporating a correction to account for differences in the T1 and T2 relaxation times of tissue and blood, respectively.
Briefly, MCA/129 fibrosarcoma tumors were implanted in the rear mouse hip, and subjected to intravoxel incoherent motion (IVIM) MRI when tumors reached a size of 150-300 mm^3. […] Data (mean±SEM) are collated from 6 animals per group.

ASMase = ASMase activity radioenzymatic assay in BAEC; format: cell-based, bovine
Procedure: BAEC were established from the intima of bovine aorta as described^1. Stock cultures were grown in 100-mm dishes in Dulbecco's modified Eagle's medium (DMEM) supplemented with glucose (1 g/liter), 5% heat-inactivated calf serum (CS), penicillin (50 units/ml), and streptomycin (50 μg/ml). Purified human recombinant bFGF (1 ng/ml; R&D Systems, Inc., Minneapolis, MN) was added every other day during the exponential growth phase. […] These plateau phase cells were either used for experiments, or further sub-cultured (up to a maximum of 10 times) at a split ratio of 1:8. For sub-culturing, monolayers were dissociated with STV (0.05% trypsin and 0.02% EDTA in PBS) for 2-3 min at 22° C., washed twice in 5% CS-DMEM, and resuspended in DMEM with supplements as above. These mild conditions of trypsinization were sufficient to detach cells but not injure, stimulate, or affect cell function in a detectable way. BAEC were maintained at 37° C. in 10% CO2 humidified incubators.
ASMase activity was quantified by radioenzymatic assay using [^14C-methylcholine]sphingomyelin (Amersham) as substrate as described (Schissel et al. J Biol Chem, 271, 18431-18436, 1996). Cell lysates were incubated with [^14C-methylcholine]-sphingomyelin substrate (0.026 mCi/9.5 nmol) in 250 mM sodium acetate, pH 5.0 supplemented with 0.1% Triton X-100 and 1 mM EDTA or 0.1 mM ZnCl. Reactions were terminated after 1 h with CHCl3:MeOH:1N HCl (100:100:1, v/v/v), and [^14C-methylcholine]phosphocholine product in the aqueous layer of the Folch extract was quantified using a Beckman Packard 2200 CA Tricarb scintillation counter. For detection of ASMase activity in patients, 10 μl of serum was used.
To test the effect of chemotherapy on ASMase signaling and ceramide production, BAEC were treated with paclitaxel (100 nM) and ASMase activity was determined by radioenzymatic assay (Rotolo et al, infra) using [^14C-methylcholine] sphingomyelin (Amersham) as substrate (FIG. 1A). Induction of ASMase activity was observed within 5 minutes after treatment, and the activation continued for 30 minutes. Ceramide generation was monitored using the diacylglycerol kinase assay (Stancevic et al. PLoS ONE 8, e69025, 2013). […] In further support of this, pre-incubation of BAEC with nystatin prior to treatment with chemotherapy inhibits chemotherapy-induced apoptosis (FIG. 3).
To determine the generality of the results observed, experiments were carried out using an additional endothelial cell line, human coronary artery endothelial cells (HCAEC); experiments were also performed using a different chemotherapeutic agent. […] Next, HCAEC were treated with paclitaxel (100 nM) (data not shown) and etoposide (50 μM) (FIG. 1F), and ceramide generation was evaluated.
To further establish the generality of ASMase activation by various chemotherapeutic agents, BAEC and HCAEC were treated with increasing doses of cisplatin (0.1-50 μM) (data not shown). […] The ASMase/ceramide pathway was activated by chemotherapeutic agents that belong to different classes of chemotherapeutic agents, such as: taxanes, topoisomerase inhibitors, and nucleoside analog metabolic inhibitors. Since such chemotherapy agents are characterized by distinct mechanisms of action in tumor cells, it is surprising that a group of such distinct agents converges on a common molecular (ASMase/ceramide) axis in endothelium. The present confirmation that distinct chemotherapeutic agents activate the ASMase/ceramide pathway permits the present inventors to take into account the results of experiments using single dose radiotherapy, which has been reported to activate the same pathway (Rao, S. S. et al., Axitinib sensitization of high Single Dose Radiotherapy. Radiotherapy and Oncology: Journal of the European Society for Therapeutic Radiology and Oncology 111, 88-93, doi:10.1016/j.radonc.2014.02.010 (2014)).
Gemcitabine was able to activate ASMase in cultured endothelial cells. […]

MCA/129 fibrosarcomas = assay: Endothelial apoptosis in vivo (TUNEL/MECA-32) in MCA/129 fibrosarcomas; set-up: species or system mice; conditions: gemcitabine 240 mg/kg
Procedure: Human HCT-116 colon cancer cells and MCA/129 murine sarcoma cells were maintained in DMEM with 10% fetal bovine serum, with 100 u/ml penicillin and 100 μg/ml streptomycin. Cells were grown as monolayers in 75 cm^2 culture flasks at 37° C. in 10% CO2 humidified incubators. Cells were trypsinized, washed in PBS and diluted in Matrigel/PBS solution (40:60 v/v) for HCT-116 xenografts or in PBS for MCA/129 syngeneic tumor grafts. Cells (3×10^6 for HCT-116 or 1×10^6 for MCA129) were injected subcutaneously into the flanks of mice (Garcia-Barros et al. Science 300, 1155-1159, 2003).
To evaluate acute endothelial apoptosis, tumors were grown in mice and treated with drugs as above. After the first treatment, tumors were harvested at specified times, placed into formalin overnight and paraffin-embedded the next day. Paraffin-embedded sections (5 μm) were co-stained for apoptotic endothelium using TUNEL and the endothelial-specific monoclonal antibody MECA-32 (Developmental Studies Hybridoma Bank, developed under the auspices of the NICHD and maintained by The University of Iowa, IA).
Similar results were observed using MCA/129 murine fibrosarcoma tumors implanted in Sv129/Bl6^asmase+/+ mice. […] After 4 hours of treatment, tumors were harvested and endothelial cell apoptosis quantified.

[2] = human, in vivo; cited from earlier work
[3] = tested on: advanced soft tissue sarcoma; assay: Phase II trial of gemcitabine and docetaxel with bevacizumab, volumetric tumor response; format: in vivo, human
Procedure: Patients with metastatic or locally-recurrent leiomyosarcoma, pleomorphic undifferentiated sarcoma, pleomorphic liposarcoma, rhabdomyosarcoma or angiosarcoma, were treated on a phase II trial of gemcitabine, docetaxel and bevacizumab. Initially the trial was a double-blind, placebo-controlled, randomized trial of gemcitabine and docetaxel with or without bevacizumab, which was modified to a single-arm, open-label, non-randomized study of gemcitabine, docetaxel and bevacizumab. The protocol was approved by the Institutional Review Board of Memorial-Sloan Kettering Cancer Center, and all patients provided written informed consent (Clinicaltrials.gov identifier NCT00887809).
Initially, gemcitabine was administered immediately following bevacizumab.
Volumetric measurement of tumors was performed on an exploratory basis as the original study was not designed or powered to specifically investigate the clinical application of timed anti-angiogenic therapy as a method of tumor chemosensitization. In light of the results from our animal studies, which were made part way through the clinical study period, volumetric measurements were proposed to more ideally facilitate comparison with our pre-clinical data. Furthermore, they likely provide a more meaningful assessment of tumor response than the RECIST based evaluation for soft tissue sarcoma. […] Baseline CT or MRI was used to identify a dominant target lesion for measurement. Follow-up scans were evaluated for best response. Tumor contours were defined manually and summed across all axial slices to calculate a total volume measurement. Tumor response was defined as at least a 30% reduction in tumor volume. Both a two-tailed Fisher's Exact Test and the Mann-Whitney Rank-Sum test were employed to evaluate significance in patient volumetric response rates at the first interval treatment scan (week 6) and at time of maximum treatment response.
Patients enrolled in the trial had metastatic or recurrent leiomyosarcoma, pleomorphic undifferentiated sarcoma, pleomorphic liposarcoma, rhabdomyosarcoma or angiosarcoma (FIG. 7A).
A total of 38 patients were treated. A subset of patients received placebo instead of bevacizumab. […] Baseline CT scan or MRI was used to identify a dominant target lesion for volumetric measurement, followed by volumetric assessment on initial post-treatment follow-up scan ([…]) and over the treatment course (representative CT time course of abdominal metastasis is shown in FIG. 7B showing regression of metastatic tumor).

Row | Compound | Time of peak vascularity and diffusion reduction after treatment [1] | Diffusion (D*) ([1]; over 1 hour) | Vascularity (Fp) ([1]; over 1 hour) | ASMase activation (ASMase; etoposide 50 μM, cisplatin 0.1-50 μM, gemcitabine 100 nM time-course) | Dose dependence of ASMase activation (ASMase; increasing doses of gemcitabine, 5 minutes) | Endothelial cell apoptosis (MCA/129 fibrosarcomas; Sv129/BL6 asmase+/+) | Tumor cell apoptosis (MCA/129 fibrosarcomas) | Half-life (t1/2) [2] | Patients with >30% tumor reduction, initial follow-up scan ([3]; after two 3-week cycles, bevacizumab-gemcitabine 1-hour interval, 14 patients) | Patients with significant tumor response (≥30% reduction in tumor volume), initial follow-up scan ([3]; after two 3-week cycles, immediate consecutive bevacizumab-gemcitabine, 16 patients) | Patients with significant tumor response, best response ([3]; bevacizumab 15 mg/kg 1 hour prior to gemcitabine, docetaxel day 8, 14 patients) | Patients with significant tumor response (>30% reduction in tumor volume), best response ([3]; bevacizumab 15 mg/kg immediately before gemcitabine, docetaxel day 8, 16 patients)
1 | Nc1ccn([C@@H]2O[C@H](CO)[C@@H](O)C2(F)F)c(=O)n1 [gemcitabine] | 15 to 30 min | reduced in a reversible manner | reduced in a reversible manner | triggered rapid cellular activation of ASMase | dose-dependent manner | induced time-dependent endothelial cell apoptosis | did not cause tumor cell apoptosis | – | – | – | – | –
2 | bevacizumab: monoclonal antibody that targets circulating VEGF A, long-acting AAA | – | – | – | – | – | – | – | 21 days | 64% | 25% | 93% | 38%
